Data published in patent US10662194B2, “Substituted 6-anilino-9-heterocyclylpurine derivatives for inhibition of plant stress” (UNIVERZITA PALACKEHO V OLOMOUCI, priority 2014, dated 2020).
Marks after values point to notes of the source that are not given here.

Key:
[1] = Calcein AM viability/cytotoxicity assay, BJ; format: cell-based; conditions: human, BJ foreskin fibroblasts, FIG. 11, read-out: IC50, concentration reducing number of viable cells to 50%
Source text: Absence of toxic effects against mammalian (especially human) cell lines in a wide concentration range is one of the requirements on compounds intended for use in agriculture and medicine. Because toxic compounds negatively influence metabolic processes in cells, many standard cytotoxicity assays are based on measurement of metabolisation rate of various artificial substrates. Resulting product is then quantified e.g. by means of spectrometry. The assays can be easily modified for use in 96-well plates. For evaluation of cytotoxic effect of compounds of this invention, a microtiter assay based on quantification of metabolisation of Calcein AM was used. The assay is widely used in drug screening programs and in chemosensitivity testing. In live cells, Calcein AM is enzymatically hydrolysed and accumulation of resulting calcein is manifested by green fluorescence. The cytotoxicity of the studied compounds was determined with human fibroblast lines MRC-5 (lung fibroblasts) and BJ (foreskin fibroblasts). […] The fluorescence of the live cells was measured at 485 nm/538 nm (excitation/emission) with a Fluoroskan Ascent microplate reader (Labsystems). […]

[2] = system: maize hybrides Amadeo and Zidane; test: Seed coating, shoot biomass of silage maize (field experiment); format: in vivo
Procedure: Based on the results discussed in previous Example 25, field plot experiments were performed on two different locations (Kroměříž Czech Republic; Olomouc, Czech Republic) in years 2012 and 2013 to evaluate the effect of seed coating with compound 12 on biomass formation of maize. In
the season 2012 the seeds of maize (hybrid Amadeo; KWS, FAO 230) were coated with 10 and 50 μM water solution of compound 12 (8 L of solution per 1000 kg of seeds). The seeds were dried and then sown in the sowing rate 90.000 seeds per hectare in 4 replications per each variant in randomized positions (each replication was 10 square meter plot). The plants were harvested when reached the stage of 33-34% of dry mass. The plants were then analyzed for their moisture and standardized dry mass.
The experiment was repeated in the season 2013 with 50 μM concentration of compound 12 in the same experimental design with maize hybrid Zidane (KWS, FAO 250).

[3] = system: CKX1 overproducing (35S:CKX1) Arabidopsis seedlings; test: In vitro shoot and root growth of cytokinin deficient Arabidopsis plants; format: in vivo
Source text: Constitutive overexpression of CKX in 35S:CKX1 plants leads to enhanced root growth. If CKX inhibitor can restore WT phenotype, it is expected that inhibition of the CKX activity in 35S:AtCKX1 plants should thus have no effect or inhibit their root growth. Such observation was done in case of INCYDE, but not compound 12.

recombinant AtCKX2 = biological target: T1, recombinant AtCKX2 (Arabidopsis thaliana, UniProt Q9FUJ3); test: Inhibition of cytokinin oxidase/dehydrogenase activity (PMS/MTT microtitre assay); format: biochemical
T1 construct: made in house; host or cells: S. cerevisiae strain 23344c ura-
T1 sequence (Q9FUJ3 23-501): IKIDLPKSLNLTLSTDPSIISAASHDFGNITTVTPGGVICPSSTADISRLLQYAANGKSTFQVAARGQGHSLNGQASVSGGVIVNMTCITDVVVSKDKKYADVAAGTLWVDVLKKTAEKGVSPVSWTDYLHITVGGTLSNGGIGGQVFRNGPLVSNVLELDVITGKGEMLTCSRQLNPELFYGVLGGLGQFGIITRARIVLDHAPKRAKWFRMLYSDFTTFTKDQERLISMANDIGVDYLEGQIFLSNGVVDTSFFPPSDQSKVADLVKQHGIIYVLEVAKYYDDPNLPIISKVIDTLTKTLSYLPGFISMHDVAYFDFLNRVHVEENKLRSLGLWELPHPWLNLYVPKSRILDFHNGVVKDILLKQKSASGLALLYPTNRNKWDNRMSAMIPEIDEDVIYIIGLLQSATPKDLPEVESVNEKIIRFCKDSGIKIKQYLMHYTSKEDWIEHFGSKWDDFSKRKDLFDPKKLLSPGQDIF
Procedure: IC50 measurements were done using the assay in microtitre plate. Each well contained 100 μL of PMS/MTT [phenazine methosulfate/3-(4,5-dimethylthiazol-2-yl)-2,5-diphenyltetrazolium bromide] reaction mixture (final concentrations: 0.1 M KH2PO4, pH 7.4, 1 mM MTT, 0.2 mM PMS) containing the tested compound (3×10^−7 M-3×10^−4 M) and 30 μM N^6-isopentenyladenine (iP) as a substrate. 100 μL of cell-free growth medium of S. cerevisiae strain 23344c ura^− harboring the plasmid pYES2-AtCKX2 was directly used as a source of AtCKX2. Plates were incubated in the dark for 30 min at 37° C. and the enzymatic reaction was stopped by 25 μL of 35% acetic acid. The absorbance at 578 nm was measured using spectrophotometer Tecan. Absorbance of the sample without iP was subtracted.
The IC50 value, the compound concentration that inhibits the enzyme activity to 50%, was calculated from the obtained dose response curves. The values shown in Table 7 are means of three replicates and the entire test was repeated at least twice. […] Compound 12 is an effective inhibitor of AtCKX2 activity, app. 3-times stronger that thidiazuron and only app. 3-times weaker than the structurally related compound INCYDE (2-chloro-6-(3-methoxyanilino)purine).

COc1cccc(Nc2nc(Cl)nc3c2ncn3C2CCCCO2)c1 (stereo not shown) [compound 12, 2-chloro-6-(3-methoxyanilino)-9-(tetrahydropyran-2-yl)purine]
IC50 at 72 h [1]: > 100 µM
Absolute dry matter yield ([2]; 10 μM, Kroměříž, 2012): 23.06 t/ha
Absolute green matter yield ([2]; 10 μM, Kroměříž, 2012): 52.19 t/ha
Height before harvest ([2]; 10 μM, Kroměříž, 2012): 276.6 cm
Height before harvest (% of control) ([2]; 10 μM, Kroměříž, 2012): 101.0 % of control
Relative dry matter yield (% of control) ([2]; 10 μM, Kroměříž, 2012): 110.85 % of control
Absolute dry matter yield ([2]; 10 μM, Olomouc, 2012): 17.01 t/ha
Absolute green matter yield ([2]; 10 μM, Olomouc, 2012): 43.20 t/ha
Height before harvest ([2]; 10 μM, Olomouc, 2012): 237.3 cm
Height before harvest (% of control) ([2]; 10 μM, Olomouc, 2012): 98.3 % of control
Relative dry matter yield (% of control) ([2]; 10 μM, Olomouc, 2012): 110.94 % of control
average silage yield counted from all trials ([2]; 10 μM, counted from 2 trials): 110.9%
Absolute dry matter yield ([2]; 50 μM, Kroměříž, 2012): 22.18 t/ha
Absolute green matter yield ([2]; 50 μM, Kroměříž, 2012): 49.52 t/ha
Height before harvest ([2]; 50 μM, Kroměříž, 2012): 273.5 cm
Height before harvest (% of control) ([2]; 50 μM, Kroměříž, 2012): 99.8 % of control
Relative dry matter yield (% of control) ([2]; 50 μM, Kroměříž, 2012): 106.63 % of control
Absolute dry matter yield ([2]; 50 μM, Kroměříž, 2013): 22.33 t/ha
Absolute green matter yield ([2]; 50 μM, Kroměříž, 2013): 66.47 t/ha
Relative dry matter yield (% of control) ([2]; 50 μM, Kroměříž, 2013): 107.82* % of control
Absolute dry matter yield ([2]; 50 μM, Olomouc, 2012): 17.80 t/ha
Absolute green matter yield ([2]; 50 μM, Olomouc, 2012): 44.31 t/ha
Height before harvest ([2]; 50 μM, Olomouc, 2012): 235.8 cm
Height before harvest (% of control) ([2]; 50 μM, Olomouc, 2012): 97.7 % of control
Relative dry matter yield (% of control) ([2]; 50 μM, Olomouc, 2012): 116.06 % of control
Absolute dry matter yield ([2]; 50 μM, Olomouc, 2013): 19.23 t/ha
Absolute green matter yield ([2]; 50 μM, Olomouc, 2013): 68.78 t/ha
Height before harvest ([2]; 50 μM, Olomouc, 2013): 246.4 cm
Height before harvest (% of control) ([2]; 50 μM, Olomouc, 2013): 100.8 % of control
Relative dry matter yield (% of control) ([2]; 50 μM, Olomouc, 2013): 101.33 % of control
average silage yield counted from all trials ([2]; 50 μM, counted from 3 trials): 105.3%
effect on the plant height ([2]; seed treatment, all field plot experiments): without any effect on the plant height
complementation of wild type shoot phenotype ([3]; 0.1 μM in MS medium, FIG. 3, 4): led to restauration of wild type shoot phenotype
root biomass of 35S:CKX1 plants ([3]; tested concentration range, FIG. 5): strong dose-dependent positive effect
AtCKX2 inhibition, times stronger than thidiazuron (recombinant AtCKX2): ~3 times
AtCKX2 inhibition, times weaker than INCYDE (recombinant AtCKX2): ~3 times
IC50 (recombinant AtCKX2; 30 μM iP substrate, 30 min, 37° C., read-out: IC50): 19.5 µM
